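All cell lines were grown in 96-well plates and treated with compound for 48 hours. TGI denotes the concentration required for complete inhibition of growth.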
Experiments:
Assay in all cases: NCI anticancer screen, dose series, 48 h
[1] = tested on: 786-0 renal
[2] = tested on: A498 renal
[3] = tested on: A549 NSCLC
[4] = tested on: ACHN renal
[5] = tested on: CAKI-1 renal
[6] = tested on: CCRF-CEM leukemia
[7] = tested on: COLO 205 colon
[8] = tested on: DLD-1 colon
[9] = tested on: DMS 114 small cell lung
[10] = tested on: DMS 273 small cell lung
[11] = tested on: EKVX NSCLC
[12] = tested on: HCC-2998 colon
[13] = tested on: HCT-116 colon
[14] = tested on: HCT-15 colon
[15] = tested on: HL-60(TB) leukemia
[16] = tested on: HOP-18 NSCLC
[17] = tested on: HOP-62 NSCLC
[18] = tested on: HOP-92 NSCLC
[19] = tested on: HT29 colon
[20] = tested on: IGROV1 ovarian
[21] = tested on: K-562 leukemia
[22] = tested on: KM12 colon
[23] = tested on: KM20L2 colon
[24] = tested on: LOX IMVI melanoma
[25] = tested on: LXFL 529 NSCLC
[26] = tested on: M14 melanoma
[27] = tested on: M19-MEL melanoma
[28] = tested on: MALME-3M melanoma
[29] = tested on: MOLT-4 leukemia
[30] = tested on: NCI-H226 lung
[31] = tested on: NCI-H23 lung
[32] = tested on: NCI-H460 lung
[33] = tested on: OVCAR-3 ovarian
[34] = tested on: OVCAR-4 ovarian
[35] = tested on: OVCAR-5 ovarian
[36] = tested on: OVCAR-8 ovarian
[37] = tested on: RPMI-8226 leukemia
[38] = tested on: RXF 393 renal
[39] = tested on: RXF-631 renal
[40] = tested on: SF-268 CNS
[41] = tested on: SF-295 CNS
[42] = tested on: SF-539 CNS
[43] = tested on: SK-MEL-2 melanoma
[44] = tested on: SK-MEL-28 melanoma
[45] = tested on: SK-MEL-5 melanoma
[46] = tested on: SK-OV-3 ovarian
[47] = tested on: SN12C renal
[48] = tested on: SNB-19 CNS
[49] = tested on: SNB-75 CNS
[50] = tested on: SNB-78 CNS
[51] = tested on: SR leukemia
[52] = tested on: SW-620 colon
[53] = tested on: TK-10 renal
[54] = tested on: U251 CNS
[55] = tested on: UACC-257 melanoma
[56] = tested on: UACC-62 melanoma
[57] = tested on: UO-31 renal
[58] = tested on: NCI-H522 lung
[59] = tested on: XF 498 CNS

CCc1cc(Cc2cc(CC)c(NC(=O)C3=CC(=O)CC(c4ccc(OC)cc4)O3)c(CC)c2Cl)c(Cl)c(CC)c1NC(=O)C1=CC(=O)CC(c2ccc(OC)cc2)O1 (stereo not given)
TGI [1]: 34.3 µM
TGI [2]: 39.9 µM
TGI [3]: 43.8 µM
TGI [4]: 32.1 µM
TGI [5]: 65.8 µM
TGI [6]: 90.2 µM
TGI [7]: 31.6 µM
TGI [8]: 34.8 µM
TGI [9]: 33.5 µM
TGI [10]: 37.6 µM
TGI [11]: > 100 µM
TGI [12]: 30.4 µM
TGI [13]: 31.6 µM
TGI [14]: 53.7 µM
TGI [15]: 68.1 µM
TGI [16]: 53.5 µM
TGI [17]: 46.5 µM
TGI [18]: 39.7 µM
TGI [19]: 36.4 µM
TGI [20]: 45.5 µM
TGI [21]: > 100 µM
TGI [22]: 26.9 µM
TGI [23]: 63.4 µM
TGI [24]: 32.4 µM
TGI [25]: 31.9 µM
TGI [26]: 31.6 µM
TGI [27]: 40.2 µM
TGI [28]: 37.2 µM
TGI [29]: > 100 µM
TGI [30]: 47.5 µM
TGI [31]: 32 µM
TGI [32]: 32.6 µM
TGI [33]: 38.2 µM
TGI [34]: 54.8 µM
TGI [35]: 37.3 µM
TGI [36]: 90.5 µM
TGI [37]: 46.8 µM
TGI [38]: 34.7 µM
TGI [39]: > 100 µM
TGI [40]: 58.2 µM
TGI [41]: 38.7 µM
TGI [42]: 38.9 µM
TGI [43]: 36.7 µM
TGI [44]: 41.4 µM
TGI [45]: 36.4 µM
TGI [46]: 32.2 µM
TGI [47]: 39.5 µM
TGI [48]: 42.7 µM
TGI [49]: 46.2 µM
TGI [50]: 85.1 µM
TGI [51]: 59.2 µM
TGI [52]: 20.9 µM
TGI [53]: 51.7 µM
TGI [54]: 26.1 µM
TGI [55]: 36.8 µM
TGI [56]: 63.2 µM
TGI [57]: 30.8 µM

CCCCCCCCCCCCCCCC(=O)NC1CCc2cc(O)c(O)c(O)c2-c2ccc(SC)c(=O)cc21 (stereo not given)
TGI [1]: 33.3 µM
TGI [2]: 39.5 µM
TGI [3]: 15.5 µM
TGI [4]: 22.4 µM
TGI [5]: 27.2 µM
TGI [6]: 46.2 µM
TGI [7]: 16.9 µM
TGI [8]: 22.4 µM
TGI [9]: 6.37 µM
TGI [10]: 16.4 µM
TGI [11]: 39.7 µM
TGI [12]: 20.9 µM
TGI [13]: 17.2 µM
TGI [14]: 15.5 µM
TGI [15]: > 36.7 µM
TGI [17]: 25.4 µM
TGI [18]: 8.28 µM
TGI [19]: 27.8 µM
TGI [20]: 25.3 µM
TGI [21]: > 40.7 µM
TGI [22]: 20.3 µM
TGI [23]: 32.7 µM
TGI [24]: 24.8 µM
TGI [25]: 8.04 µM
TGI [26]: 25 µM
TGI [28]: 28.5 µM
TGI [29]: > 71.8 µM
TGI [30]: 27.4 µM
TGI [31]: 16.6 µM
TGI [32]: 19.6 µM
TGI [58]: 14.6 µM
TGI [33]: 16.8 µM
TGI [34]: 28.9 µM
TGI [35]: 26.8 µM
TGI [36]: 28.8 µM
TGI [37]: > 100 µM
TGI [38]: 7.66 µM
TGI [39]: 28.1 µM
TGI [40]: 23 µM
TGI [41]: 13.7 µM
TGI [42]: 9.2 µM
TGI [44]: 20.9 µM
TGI [45]: 16 µM
TGI [46]: 29.5 µM
TGI [47]: 35.8 µM
TGI [48]: 23.4 µM
TGI [49]: 9.13 µM
TGI [50]: 28.2 µM
TGI [51]: > 31 µM
TGI [52]: 19 µM
TGI [53]: 30.2 µM
TGI [54]: 12.6 µM
TGI [55]: 26.7 µM
TGI [56]: 10.9 µM
TGI [57]: 22.6 µM
TGI [59]: 29.6 µM

O=C1CCC(c2nc3ccccc3o2)C(=O)N1 (stereo not given)
TGI [1]: > 100 µM
TGI [2]: > 100 µM
TGI [3]: > 100 µM
TGI [4]: > 100 µM
TGI [5]: > 100 µM
TGI [6]: > 100 µM
TGI [7]: > 100 µM
TGI [8]: > 100 µM
TGI [9]: > 100 µM
TGI [10]: > 100 µM
TGI [11]: > 100 µM
TGI [12]: > 100 µM
TGI [13]: > 100 µM
TGI [14]: > 100 µM
TGI [15]: > 100 µM
TGI [16]: > 100 µM
TGI [17]: > 100 µM
TGI [18]: > 100 µM
TGI [19]: > 100 µM
TGI [20]: > 100 µM
TGI [21]: > 100 µM
TGI [22]: > 100 µM
TGI [23]: > 100 µM
TGI [24]: > 100 µM
TGI [25]: > 100 µM
TGI [26]: > 100 µM
TGI [27]: > 100 µM
TGI [28]: > 100 µM
TGI [29]: > 100 µM
TGI [30]: > 100 µM
TGI [31]: > 100 µM
TGI [32]: > 100 µM
TGI [58]: > 100 µM
TGI [33]: > 100 µM
TGI [34]: > 100 µM
TGI [36]: > 100 µM
TGI [38]: > 100 µM
TGI [39]: > 100 µM
TGI [40]: > 100 µM
TGI [41]: > 100 µM
TGI [42]: > 100 µM
TGI [43]: > 100 µM
TGI [44]: > 100 µM
TGI [45]: > 100 µM
TGI [46]: > 100 µM
TGI [47]: > 100 µM
TGI [48]: > 100 µM
TGI [49]: > 100 µM
TGI [50]: > 100 µM
TGI [51]: > 100 µM
TGI [52]: > 100 µM
TGI [53]: > 100 µM
TGI [54]: > 100 µM
TGI [55]: > 100 µM
TGI [56]: > 100 µM
TGI [57]: > 100 µM

CCN=C1NN=C(c2ccccc2)c2cc(Cl)ccc2N1
TGI [1]: 34.1 µM
TGI [2]: 90 µM
TGI [3]: > 100 µM
TGI [4]: > 100 µM
TGI [5]: 36.9 µM
TGI [6]: > 100 µM
TGI [7]: 35.4 µM
TGI [9]: 43.9 µM
TGI [10]: 26.2 µM
TGI [11]: 92.7 µM
TGI [12]: 34.4 µM
TGI [14]: 48.6 µM
TGI [15]: 62.3 µM
TGI [16]: > 100 µM
TGI [17]: 48.2 µM
TGI [18]: 47.5 µM
TGI [19]: 32.3 µM
TGI [20]: 70 µM
TGI [21]: > 100 µM
TGI [22]: 31.1 µM
TGI [24]: 36.7 µM
TGI [26]: 33.5 µM
TGI [27]: 39.5 µM
TGI [28]: 33.7 µM
TGI [29]: 94.8 µM
TGI [30]: 43.3 µM
TGI [31]: 64.6 µM
TGI [58]: 30.2 µM
TGI [33]: 43.7 µM
TGI [34]: > 100 µM
TGI [35]: 60.9 µM
TGI [36]: 69.4 µM
TGI [37]: 87.1 µM
TGI [38]: 58 µM
TGI [39]: 41.7 µM
TGI [40]: 91.1 µM
TGI [41]: 37.5 µM
TGI [42]: 35.8 µM
TGI [43]: 32.8 µM
TGI [44]: 33.7 µM
TGI [45]: 30.7 µM
TGI [46]: 68.7 µM
TGI [47]: 88.5 µM
TGI [48]: > 100 µM
TGI [49]: 45.8 µM
TGI [50]: 72 µM
TGI [52]: 63.8 µM
TGI [53]: 62.7 µM
TGI [54]: 42.6 µM
TGI [55]: 34.3 µM
TGI [56]: 31.7 µM
TGI [57]: 70.2 µM
TGI [59]: 45.2 µM

Cc1ccc2sc3cc(=O)cc(C)c-3nc2c1
TGI [1]: > 100 µM
TGI [3]: > 100 µM
TGI [4]: > 100 µM
TGI [5]: 93.1 µM
TGI [6]: 93.8 µM
TGI [7]: > 100 µM
TGI [8]: > 100 µM
TGI [9]: > 100 µM
TGI [10]: > 100 µM
TGI [11]: > 100 µM
TGI [12]: > 100 µM
TGI [13]: > 100 µM
TGI [14]: > 100 µM
TGI [15]: 66 µM
TGI [16]: > 100 µM
TGI [17]: > 100 µM
TGI [18]: > 100 µM
TGI [19]: > 100 µM
TGI [20]: > 100 µM
TGI [21]: > 100 µM
TGI [22]: > 100 µM
TGI [23]: > 100 µM
TGI [25]: > 100 µM
TGI [26]: > 100 µM
TGI [27]: 30.7 µM
TGI [29]: > 100 µM
TGI [30]: > 100 µM
TGI [31]: > 100 µM
TGI [32]: > 100 µM
TGI [58]: > 100 µM
TGI [33]: > 100 µM
TGI [34]: 52.4 µM
TGI [35]: > 100 µM
TGI [36]: > 100 µM
TGI [39]: > 100 µM
TGI [40]: > 100 µM
TGI [41]: > 100 µM
TGI [42]: > 100 µM
TGI [43]: > 100 µM
TGI [44]: > 100 µM
TGI [45]: 38.4 µM
TGI [46]: > 100 µM
TGI [47]: > 100 µM
TGI [48]: > 100 µM
TGI [49]: > 100 µM
TGI [50]: > 100 µM
TGI [51]: > 100 µM
TGI [52]: > 100 µM
TGI [53]: > 100 µM
TGI [54]: > 100 µM
TGI [55]: > 100 µM
TGI [56]: 36 µM
TGI [57]: > 100 µM

Source: PubChem BioAssay (NCI)
